The record followed here is patent publication US20070218086A1, “Adjuvant Composition and Methods for Its Use” (priority 2004, published 2007).

The test system of assay [1] is primary polyclonal human Vγ9/Vδ2 T cells. The assay can be described thus: TNFα release assay (cytokine release assay). Format: cell-based. The settings on record: T-cell, 24 h, read-out: in vitro EC50. The procedure: Cells (primary polyclonal human Vγ9/Vδ2 T cells which had been expanded in vitro and stored frozen at day 12-15 of expansion) are thawed and rinsed them twice and centrifuged. Upon elimination of supernatant and resuspension of cells, cells are incubated for 24h at 37° C. in the presence of IL2 100 UI/ml (fmal concentration). Cells are washed and centrifuged, following which the supernatant is eliminated and the cells are resuspended and adjusted to the adequate final concentration. Cells are added to the wells of a 96-well plate.
To one row of wells are added a standard diluation series of 3-(bromomethyl)-3-butanol-1-yl-diphosphate (BrHPP). Compounds to be tested, in this case CHDMAPP and HDMAPP are added to experimental wells, after several dilutions.
Full plates are incubated 24 hours at 37° C. for stimulation of the γδ cells with the BrHPP standard as well as isopentenyl pyrophosphate (IPP) for comparison, and test compounds CHDMAPP and HDMAPP. After this time, 100 μl of culture supernatant is taken for TNFα dosage. Measurement of the released TNFa dosageis performed as described by the manufacturer's instruction in the TNFa enzyme immunoassay kit (ref. 11121, Immunotech-Beckman Coulter). OD at 405 nm is read, the OD being proportional to the concentration of released TNFα in the culture supernatant. The data are processed with the Excel software to compare concentration of test compound versus concentration of TNFα and for the calculation of the EC50 for each test compound.

Assay [2] concerns IFNγ, TNF-alpha, IL2, IL4, IL5 and IL6. Format: in vivo, monkeys.
Assay [3] has as its system γδ T cells. The assay can be described thus: in vivo Vγ9/Vδ2+ T cell stimulation in cynomolgus monkeys.
In assay [4] the test system is Vγ9/Vδ2+ T cell. The assay can be described thus: in vitro Vγ9/Vδ2+ T cell stimulation. Format: cell-based.

On to `C=C(C)CCO[P@@](=O)(O)OP(=O)(O)O` [IPP, isopentenyl pyrophosphate, reference compound], for which, in assay [1], the EC50 (usually the concentration needed to bring the measured effect to its halfway point) was ~31000 nM.

As to `C/C(=C\CCP(=O)(O)OP(=O)(O)O)CO` [CHDMAPP, (E)-5-hydroxy-4-methylpent-3-enyl pyrophosphonate], the “cytokine production (IFNγ) over that observed with the phosphoantigen alone” value in assay [2] (cytokines known to be induced by phosphoantigen alone (IFNγ)) is “large increase of cytokine production”. The “cytokine production over that observed with the Hybrid-I formulation alone” value in assay [2] (serum cytokines, 8 monkeys per group, FIG. 3) was “large and statistically significant increase in cytokine production”. Also, the EC50 in assay [1] is ~0.873 nM.

As for `C/C(=C\COP(=O)(O)OP(=O)(O)O)CO` [HDMAPP, (E)-4-Hydroxy-3-methylbut-2-enyl diphosphate], the EC50 in assay [3] (Macaca fascicularis, T-cell, in cynomolgus monkeys, dosage studies described in co-pending PCT/IB2003/006375) was ~5 pM; in assay [4], ~0.6 nM; in assay [1], ~0.758 nM. For the same molecule, the “activation of γδ T cells” value in assay [3] (administration to cynomolgus monkeys, very low doses) is given as “strong activation of γδ T cells”.

As for `CC(O)(CBr)CCOP(=O)(O)OP(=O)(O)O` (stereo not drawn) [BrHPP, 3-(bromomethyl)-3-butanol-1-yl-diphosphate, reference compound], the EC50 in assay [1] was ~18.6 nM.
